Assay results: the NIST ThermoML archive (doi:10.1021/acs.jced.6b00526)
± gives the expanded uncertainty stated by the source.

Assay: xn = mol fraction of the nth substance listed
Details: 100 kPa, Liquid; for mass density: Vibrating tube method; for viscosity: Falling or rolling sphere viscometry

OCCCCO [1,4-butanediol] + O
Details	mass density, 288.15 K [kg/m3]	mass density, 293.15 K [kg/m3]	mass density, 298.15 K [kg/m3]	mass density, 303.15 K [kg/m3]	mass density, 308.15 K [kg/m3]	mass density, 313.15 K [kg/m3]	mass density, 318.15 K [kg/m3]	viscosity, 293.15 K [mPa·s]	viscosity, 298.15 K [mPa·s]	viscosity, 303.15 K [mPa·s]
x2 = 0	1018.6 ± 4.1	1016.3 ± 4.1	1012.9 ± 4.1	1009.9 ± 4	1006.9 ± 4	1003.2 ± 4	1000.8 ± 4	90.7 ± 15	69.89 ± 11	55.24 ± 8.8
x2 = 0.0992	1020.8 ± 4.1	1018.3 ± 4.1	1014.8 ± 4.1	1011.8 ± 4.1	1008.9 ± 4	1005.2 ± 4	1002.6 ± 4	–	–	–
x2 = 0.1257	–	–	–	–	–	–	–	75.28 ± 12	57.95 ± 9.3	45.05 ± 7.2
x2 = 0.152	1021.8 ± 4.1	1019.3 ± 4.1	1015.8 ± 4.1	1012.8 ± 4.1	1009.8 ± 4	1006.1 ± 4	1003.4 ± 4	–	–	–
x2 = 0.2039	1022.8 ± 4.1	1020.3 ± 4.1	1016.7 ± 4.1	1013.7 ± 4.1	1010.6 ± 4	1006.9 ± 4	1004.2 ± 4	–	–	–
x2 = 0.2513	1023.6 ± 4.1	1021.1 ± 4.1	1017.6 ± 4.1	1014.5 ± 4.1	1011.4 ± 4	1007.6 ± 4	1004.9 ± 4	–	–	–
x2 = 0.2783	–	–	–	–	–	–	–	58.11 ± 9.3	44.52 ± 7.1	33.59 ± 5.4
x2 = 0.3003	1024.5 ± 4.1	1021.9 ± 4.1	1018.3 ± 4.1	1015.2 ± 4.1	1012.1 ± 4.1	1008.3 ± 4	1005.6 ± 4	–	–	–
x2 = 0.3033	–	–	–	–	–	–	–	54.65 ± 8.7	42 ± 6.7	31.63 ± 5.1
x2 = 0.3534	1025.3 ± 4.1	1022.7 ± 4.1	1019.1 ± 4.1	1015.9 ± 4.1	1012.8 ± 4.1	1009 ± 4	1006.3 ± 4	–	–	–
x2 = 0.4009	–	–	–	–	–	–	–	44.04 ± 7.1	33.94 ± 5.4	25.07 ± 4
x2 = 0.4399	1026.2 ± 4.1	1023.6 ± 4.1	1020 ± 4.1	1016.8 ± 4.1	1013.6 ± 4.1	1009.8 ± 4	1007.1 ± 4	–	–	–
x2 = 0.4482	1026.6 ± 4.1	1024 ± 4.1	1020.3 ± 4.1	1017.1 ± 4.1	1013.9 ± 4.1	1010.1 ± 4	1007.3 ± 4	–	–	–
x2 = 0.5008	–	–	–	–	–	–	–	33.85 ± 5.4	25.34 ± 4.1	18.65 ± 3
x2 = 0.5011	1027.2 ± 4.1	1024.5 ± 4.1	1020.8 ± 4.1	1017.7 ± 4.1	1014.5 ± 4.1	1010.6 ± 4	1007.8 ± 4	–	–	–
x2 = 0.5515	1027.6 ± 4.1	1025 ± 4.1	1021.1 ± 4.1	1017.9 ± 4.1	1014.8 ± 4.1	1010.9 ± 4	1008.1 ± 4	–	–	–
x2 = 0.6114	1027.7 ± 4.1	1025.1 ± 4.1	1021.3 ± 4.1	1018.2 ± 4.1	1015.1 ± 4.1	1011.2 ± 4	1008.3 ± 4	–	–	–
x2 = 0.6527	1027.6 ± 4.1	1025 ± 4.1	1021.3 ± 4.1	1018.1 ± 4.1	1015.1 ± 4.1	1011.2 ± 4	1008.4 ± 4	–	–	–
x2 = 0.6662	–	–	–	–	–	–	–	19.58 ± 3.1	13.9 ± 2.2	10.11 ± 1.6
x2 = 0.7003	–	–	–	–	–	–	–	16.6 ± 2.7	11.57 ± 1.9	8.774 ± 1.4
x2 = 0.7005	1027.2 ± 4.1	1024.5 ± 4.1	1021 ± 4.1	1017.8 ± 4.1	1014.8 ± 4.1	1011 ± 4	1008.3 ± 4	–	–	–
x2 = 0.7501	1026.3 ± 4.1	1023.6 ± 4.1	1020.1 ± 4.1	1016.9 ± 4.1	1013.9 ± 4.1	1010.3 ± 4	1007.4 ± 4	–	–	–
x2 = 0.7998	1024.2 ± 4.1	1021.5 ± 4.1	1018.3 ± 4.1	1015.3 ± 4.1	1012.5 ± 4.1	1008.9 ± 4	1006.2 ± 4	–	–	–
x2 = 0.8013	–	–	–	–	–	–	–	9.634 ± 1.5	6.814 ± 1.1	5.035 ± 0.81
x2 = 0.8492	1021.3 ± 4.1	1018.9 ± 4.1	1015.8 ± 4.1	1012.9 ± 4.1	1010.2 ± 4	1007.1 ± 4	1004 ± 4	–	–	–
x2 = 0.8979	–	–	–	–	–	–	–	4.127 ± 0.66	3.267 ± 0.52	2.369 ± 0.38
x2 = 0.9001	1015.9 ± 4.1	1014.1 ± 4.1	1011.7 ± 4	1009.2 ± 4	1006.7 ± 4	1003.6 ± 4	1000.9 ± 4	–	–	–
x2 = 0.9488	1008.1 ± 4	1006.7 ± 4	1004.7 ± 4	1003.3 ± 4	1001.1 ± 4	998.7 ± 4	996.2 ± 4	–	–	–

OCCCCCO [1,5-pentanediol] + O
Details	mass density, 288.15 K [kg/m3]	mass density, 293.15 K [kg/m3]	mass density, 298.15 K [kg/m3]	mass density, 303.15 K [kg/m3]	mass density, 308.15 K [kg/m3]	mass density, 313.15 K [kg/m3]	mass density, 318.15 K [kg/m3]	viscosity, 293.15 K [mPa·s]	viscosity, 298.15 K [mPa·s]	viscosity, 303.15 K [mPa·s]
x2 = 0	992.2 ± 4	989.2 ± 4	986.2 ± 4	983.2 ± 4	980.3 ± 4	977.4 ± 4	974.8 ± 4	118.7 ± 19	86.79 ± 14	68.3 ± 11
x2 = 0.1326	995.2 ± 4	992.1 ± 4	989 ± 4	985.9 ± 4	982.9 ± 4	979.9 ± 4	977.3 ± 4	–	–	–
x2 = 0.2201	997 ± 4	993.9 ± 4	990.8 ± 4	987.7 ± 4	984.7 ± 4	981.7 ± 4	979 ± 3.9	–	–	–
x2 = 0.2345	997.3 ± 4	994.2 ± 4	991 ± 4	988 ± 4	985 ± 4	982 ± 4	979.3 ± 3.9	–	–	–
x2 = 0.2586	–	–	–	–	–	–	–	92.52 ± 15	70.36 ± 11	54.61 ± 8.7
x2 = 0.3	–	–	–	–	–	–	–	85.43 ± 14	65.59 ± 11	51.03 ± 8.2
x2 = 0.3001	998.6 ± 4	995.5 ± 4	992.4 ± 4	989.3 ± 4	986.3 ± 4	983.3 ± 4	980.6 ± 3.9	–	–	–
x2 = 0.406	1000.7 ± 4	997.6 ± 4	994.5 ± 4	991.4 ± 4	988.5 ± 4	985.5 ± 4	982.8 ± 3.9	–	–	–
x2 = 0.4864	–	–	–	–	–	–	–	51.43 ± 8.2	39.51 ± 6.3	31 ± 5
x2 = 0.4969	1002.6 ± 4	999.5 ± 4	996.4 ± 4	993.4 ± 4	990.5 ± 4	987.6 ± 4	985 ± 3.9	49.66 ± 8	38.56 ± 6.2	30.24 ± 4.8
x2 = 0.5262	1003.2 ± 4	1000.2 ± 4	997.1 ± 4	994.1 ± 4	991.2 ± 4	988.3 ± 4	985.7 ± 3.9	–	–	–
x2 = 0.5488	1003.7 ± 4	1000.7 ± 4	997.7 ± 4	994.7 ± 4	991.8 ± 4	988.9 ± 4	986.3 ± 4	–	–	–
x2 = 0.6032	1004.8 ± 4	1001.9 ± 4	998.9 ± 4	996 ± 4	993.1 ± 4	990.2 ± 4	987.6 ± 4	–	–	–
x2 = 0.6777	–	–	–	–	–	–	–	25.01 ± 4	19.75 ± 3.2	15.78 ± 2.5
x2 = 0.7012	1006.6 ± 4	1003.8 ± 4	1000.9 ± 4	998 ± 4	995.2 ± 4	992.3 ± 4	989.8 ± 4	–	–	–
x2 = 0.7611	–	–	–	–	–	–	–	16.1 ± 2.6	12.71 ± 2	10.16 ± 1.6
x2 = 0.7745	1007.1 ± 4	1004.6 ± 4	1001.9 ± 4	999.1 ± 4	996.4 ± 4	993.7 ± 4	991.2 ± 4	–	–	–
x2 = 0.8051	1007 ± 4	1004.6 ± 4	1002.1 ± 4	999.5 ± 4	996.7 ± 4	994.1 ± 4	991.6 ± 4	–	–	–
x2 = 0.8474	–	–	–	–	–	–	–	8.205 ± 1.3	6.627 ± 1.1	5.439 ± 0.87
x2 = 0.8998	1005.3 ± 4	1003.2 ± 4	1000.9 ± 4	998.6 ± 4	996.3 ± 4	993.9 ± 4	992 ± 4	–	–	–
x2 = 0.9205	–	–	–	–	–	–	–	3.733 ± 0.6	3.103 ± 0.5	2.615 ± 0.42
